Reference: PubChem BioAssay (NCI)
Values joined by “and” are separate entries in the source; they are usually repeats but may differ in a detail not shown here. Equal values may be shown once.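 How tested: cells in 96-well plates exposed to compound for 48 hours at five concentrations. Here, GI50 denotes the concentration required for 50% inhibition of growth. TGI: total growth inhibition.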

Tests used:
Test in all cases: DTP human tumour cell line panel, 48 h
[1] = system: A549 NSCLC
[2] = system: NCI-H460 lung
[3] = system: UO-31 renal
[4] = system: COLO 205 colon
[5] = system: LOX IMVI melanoma
[6] = system: 786-0 renal
[7] = system: OVCAR-3 ovarian
[8] = system: SK-MEL-2 melanoma
[9] = system: HCT-15 colon
[10] = system: HOP-62 NSCLC
[11] = system: U251 CNS
[12] = system: TK-10 renal
[13] = system: NCI-H522 lung
[14] = system: MCF7 breast
[15] = system: SF-295 CNS
[16] = system: SNB-19 CNS
[17] = system: OVCAR-8 ovarian
[18] = system: SK-MEL-5 melanoma
[19] = system: SR leukemia
[20] = system: OVCAR-5 ovarian
[21] = system: IGROV1 ovarian
[22] = system: CCRF-CEM leukemia
[23] = system: CAKI-1 renal
[24] = system: UACC-257 melanoma
[25] = system: DU-145 prostate
[26] = system: NCI-H226 lung
[27] = system: PC-3 prostate
[28] = system: SF-268 CNS
[29] = system: SK-MEL-28 melanoma
[30] = system: K-562 leukemia
[31] = system: UACC-62 melanoma
[32] = system: BT-549 breast
[33] = system: EKVX NSCLC
[34] = system: SNB-75 CNS
[35] = system: HL-60(TB) leukemia
[36] = system: HT29 colon
[37] = system: NCI-H23 lung
[38] = system: NCI/ADR-RES ovarian
[39] = system: M14 melanoma
[40] = system: HOP-92 NSCLC
[41] = system: KM12 colon
[42] = system: RXF 393 renal
[43] = system: OVCAR-4 ovarian
[44] = system: MDA-MB-231 breast
[45] = system: SW-620 colon
[46] = system: MDA-MB-435
[47] = system: ACHN renal
[48] = system: HCC-2998 colon
[49] = system: HS 578T breast
[50] = system: MOLT-4 leukemia
[51] = system: HCT-116 colon
[52] = system: SN12C renal
[53] = system: A498 renal
[54] = system: MALME-3M melanoma
[55] = system: SK-OV-3 ovarian
[56] = system: SF-539 CNS
[57] = system: RPMI-8226 leukemia
[58] = system: T-47D breast

## OCc1ccc(-c2nn(Cc3ccccc3)c3ccccc23)o1
[1]
  GI50: 15.6 µM and 18.5 µM
  TGI: 47.7 µM and > 56.9 µM
[2]
  GI50: 12.8 µM and 12.2 µM
  TGI: 29.4 µM and 28.5 µM
[3]
  GI50: 13.7 µM and 23.8 µM
  TGI: 57.4 µM and > 84.7 µM
[4]
  GI50: 8.05 µM and 5.73 µM
  TGI: 26.2 µM and 21.7 µM
[5]
  GI50: 14.6 µM
  TGI: 29.8 µM and 27.7 µM
[6]
  GI50: 24 µM and 4.69 µM
  TGI: > 81.6 µM
[7]
  GI50: 1.35 µM and 1.71 µM
  TGI: 9.8 µM and 13.4 µM
[8]
  GI50: 16.6 µM and 30.7 µM
  TGI: 32.6 µM and > 100 µM
[9]
  GI50: 17.4 µM and 20.1 µM
  TGI: 49.2 µM and 41.4 µM
[10]
  GI50: 15.8 µM and 2.86 µM
  TGI: 53.8 µM and 30.2 µM
[11]
  GI50: 8.07 µM and 12.4 µM
  TGI: 28.5 µM and > 47.6 µM
[12]
  GI50: 0.253 µM and 0.489 µM
  TGI: 1.02 µM and 3.61 µM
[13]
  GI50: 12 µM and 20.6 µM
  TGI: 28.2 µM and > 58.7 µM
[14]
  GI50: 4.08 µM and 1.69 µM
  TGI: 24.8 µM and 57.1 µM
[15]
  GI50: 13.4 µM and 18.5 µM
  TGI: 33.7 µM and 46 µM
[16]
  GI50: 21.5 µM and 13.7 µM
  TGI: 96.7 µM and > 52 µM
[17]
  GI50: 16.3 µM and 20.7 µM
  TGI: 44.7 µM and 57 µM
[18]
  GI50: 13.7 µM and 14.2 µM
  TGI: 26.7 µM and 27.3 µM
[19]
  GI50: 12 µM and 4.48 µM
  TGI: 45.2 µM and 39.6 µM
[20]
  GI50: 0.564 µM and 0.0852 µM
[21]
  GI50: 0.508 µM and 0.288 µM
  TGI: 22.5 µM and > 93.1 µM
[22]
  GI50: 24.3 µM and 25.5 µM
  TGI: > 95.9 µM
[23]
  TGI: > 63.5 µM and 34 µM
[24]
  GI50: 0.268 µM and 0.32 µM
  TGI: 0.972 µM and 1.59 µM
[25]
  GI50: 16.6 µM and 17.8 µM
  TGI: 36.9 µM and 43.8 µM
[26]
  GI50: 0.156 µM and 0.114 µM
  TGI: 0.346 µM and 0.371 µM
[27]
  GI50: 21.8 µM and 16.6 µM
  TGI: 64.7 µM and 36 µM
[28]
  GI50: 18.6 µM and 19 µM
  TGI: 65.8 µM and 51.1 µM
[29]
  GI50: 16.9 µM and 15.7 µM
  TGI: 36.5 µM and 47.5 µM
[30]
  GI50: 10.1 µM and 7.41 µM
  TGI: 63.2 µM and > 42.3 µM
[31]
  GI50: 0.52 µM and 3.41 µM
  TGI: 16.4 µM and > 44.4 µM
[32]
  GI50: 17.3 µM and 22.7 µM
  TGI: 37.4 µM and 53 µM
[33]
  GI50: 18.9 µM and 22.9 µM
  TGI: 72.7 µM and 58.9 µM
[34]
  GI50: 11.7 µM and > 100 µM
  TGI: 47.2 µM and > 100 µM
[35]
  GI50: 15.6 µM and 19 µM
  TGI: 40.5 µM and 58.3 µM
[36]
  GI50: 15 µM and 32.8 µM
  TGI: 32.2 µM and > 100 µM
[37]
  GI50: 19.2 µM and 20.9 µM
  TGI: 58.8 µM and 50.8 µM
[38]
  GI50: 19.2 µM and 11.5 µM
  TGI: 67.1 µM and 49.6 µM
[39]
  GI50: 21.1 µM and 29.2 µM
  TGI: 45.6 µM and > 57.8 µM
[40]
  GI50: 10.4 µM and 12.2 µM
  TGI: 38.9 µM and 38.1 µM
[41]
  GI50: 16.9 µM and 16.6 µM
  TGI: 35.2 µM and 34.5 µM
[42]
  GI50: 7.94 µM and 14.8 µM
  TGI: 30.7 µM and 38 µM
[43]
  GI50: 10.2 µM and 28.1 µM
  TGI: > 100 µM
[44]
  GI50: 19.6 µM and 22.2 µM
  TGI: 60.3 µM and 55.2 µM
[45]
  GI50: 13.3 µM and 12.3 µM
  TGI: 51.9 µM and 32.8 µM
[46]
  GI50: 17.2 µM and 18.7 µM
  TGI: 40.8 µM and 39.5 µM
[47]
  GI50: 19.8 µM and 16 µM
  TGI: 91.9 µM and 39.8 µM
[48]
  GI50: 15.5 µM and 14.8 µM
  TGI: 36.6 µM and 28 µM
[49]
  GI50: 17.8 µM and 15.9 µM
  TGI: > 69.9 µM and 42.4 µM
[50]
  TGI: 62.2 µM and 37.4 µM
[51]
  GI50: 1.65 µM and 8.72 µM
  TGI: 20 µM and 22.7 µM
[52]
  GI50: 15.9 µM and 15.1 µM
  TGI: 35.5 µM and 33.7 µM
[53]
  GI50: 0.092 µM and 0.0445 µM
  TGI: 0.25 µM and 0.144 µM
[54]
  GI50: 24.3 µM and 21.1 µM
  TGI: 76.3 µM and 55.5 µM
[55]
  GI50: 20.7 µM and 17.6 µM
  TGI: 57.1 µM and 43.9 µM
[56]
  GI50: 16.2 µM and 18.6 µM
  TGI: 32.2 µM and 35.5 µM
[57]
  GI50: 14.3 µM and 3.15 µM
  TGI: 43.8 µM and 15.3 µM
[58]
  GI50: 11.1 µM and 12.4 µM
  TGI: 43.4 µM and 26.2 µM
